Experimental data: PMC6219514, “Structural basis of Gip1 for cytosolic sequestration of G protein in wide-range chemotaxis” (Nature Communications, 2018)

Biological target: T1, GFP-Flag-tagged Gip1 (Gip1-GFPF) in complex with G proteins (Dictyostelium discoideum, UniProt Q55BQ2)
T1 construct: gene DDB_G0271086; full-length Gip1 (1-310) with GFP-Flag tag, expressed in Dictyostelium cells, on anti-Flag beads with co-purified G proteins; Gγ geranylgeranylated at Cys66
Test: competitive dissociation of G proteins from bead-bound Gip1, immunoblot
Format: biochemical
Settings: CHAPS buffer pH 7.5, 4 °C, 1 h, 3.5% methanol

T1 sequence (Q55BQ2 entry or part of it, one chain of several): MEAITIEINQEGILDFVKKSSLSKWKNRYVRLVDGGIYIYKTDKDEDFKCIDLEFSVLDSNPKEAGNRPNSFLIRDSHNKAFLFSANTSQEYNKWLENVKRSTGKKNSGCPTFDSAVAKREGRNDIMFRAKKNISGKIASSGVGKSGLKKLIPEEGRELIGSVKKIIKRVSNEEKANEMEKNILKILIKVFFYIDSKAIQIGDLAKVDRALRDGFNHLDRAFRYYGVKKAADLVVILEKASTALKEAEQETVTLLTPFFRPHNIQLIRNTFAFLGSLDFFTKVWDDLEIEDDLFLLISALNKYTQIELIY

Structure (SMILES) | relative band intensity (0-100 µM, competitive with geranylgeranylated Gγ) | relative band intensity (100 µM)
CC(C)=CCC/C(C)=C/CC/C(C)=C/CC/C(C)=C/COP(=O)(O)OP(=O)(O)O [GG-pyroP, geranylgeranyl pyrophosphate] | the complex formation was competitively inhibited by the addition of geranylgeranyl pyrophosphate | –
CC(C)=CCC/C(C)=C/CC/C(C)=C/COP(=O)(O)OP(=O)(O)O [farnesyl pyrophosphate] | – | Farnesyl pyrophosphate showed slight impairment of the Gip1–G protein complex
